Data: patent publication US9957264B2 (Merck Sharp & Dohme Corp., priority 2013, dated 2018)

Target: JAK1 (recombinant purified GST-tagged catalytic domain) (Homo sapiens (Human), UniProt P23458)
Experiment: Jak Biochemical HTRF Assay (JAK1)
Details: [ATP] 31.8 μM
Method: Jak Biochemical HTRF Assay Protocol
The ability of compounds to inhibit the activity of JAK1, JAK2, JAK3, and Tyk2 was measured using a recombinant purified GST-tagged catalytic domain for each enzyme (Invitrogen JAK1 #M4290, JAK2 #M4290, JAK3 #M4290, Tyk2 #M4290) in an HTRF format biochemical assay. The reactions employed a common peptide substrate, LCB-[…]-NH2 (in-house). The basic assay protocol is as follows: First, 250 nL of diluted compounds in DMSO were dispensed into the wells of a dry 384-well Black plate (Greiner #781076) using a Labcyte Echo 555 acoustic dispenser. Subsequent reagent additions employed an Agilent Bravo. […] After equilibration, 2 μL of 10×ATP in 1× assay buffer was added to initiate the kinase reaction and the plates were shaken and then incubated at room temperature for 120 minutes. At the end of the incubation, 20 μL of 2× stop buffer (streptavidin-Dylight 650 (Thermo #84547B/100 mL), Eu-tagged pY20 antibody (Perkin Elmer #AD0067), EDTA, HEPES, and Triton) was added to quench the reaction. Plates were shaken and centrifuged and then incubated 60 minutes at room temperature and then read on a Perkin Elmer Envision (λex=337 nm, λem=665 and 615 nm, TRF delay time=20 μs). HTRF signal=10,000*665 nm reading/615 nm reading. After normalization to untreated controls, the percent inhibition of the HTRF signal at each compound concentration was calculated. The plot of percent inhibition versus the log of compound concentration was fit with a 4-parameter dose response equation to calculate IC50 values.
Final reaction conditions were:
Examples of the instant invention were evaluated in JAK1 and JAK2 in vitro binding assays as described above. The following table tabulates the JAK1 IC50 values and JAK2 IC50 values disclosed for the instant invention.

Sequence of JAK1 (recombinant purified GST-tagged catalytic domain) (P23458 875-1153): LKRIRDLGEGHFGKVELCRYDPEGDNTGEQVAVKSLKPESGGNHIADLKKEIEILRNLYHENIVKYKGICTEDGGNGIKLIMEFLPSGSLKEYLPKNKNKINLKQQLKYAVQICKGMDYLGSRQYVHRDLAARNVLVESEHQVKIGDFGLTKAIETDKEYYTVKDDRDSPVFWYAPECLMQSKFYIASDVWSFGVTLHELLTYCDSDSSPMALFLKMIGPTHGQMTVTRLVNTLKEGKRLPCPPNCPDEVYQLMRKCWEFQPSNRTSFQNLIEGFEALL

Row | Structure (SMILES) | IC50
1 | CC(C)(C)OC(=O)[C@H]1CC[C@](CC#N)(n2nc(Nc3ccc4c(c3)CN(C(C)(C)C)S4(=O)=O)c3c(=O)[nH]ccc32)CO1 [Example 5-42, (2R,5R)-tert-butyl 5-(3-((2-(tert-butyl)-1,1-dioxido-2,3-dihydrobenzo[d]isothiazol-5-yl)amino)-4-oxo-4,5-dihydro-1H-pyrazolo[4,3-c]pyridin-1-yl)-5-(cyanomethyl)tetrahydro-2H-pyran-2-carboxylate] | 1.6 nM
2 | CC(C)(C)N1Cc2cc(Nc3nn(C4(CC#N)CCCC4)c4cc[nH]c(=O)c34)ccc2S1(=O)=O [Example 5-121, 2-(1-(3-((2-(tert-butyl)-1,1-dioxido-2,3-dihydrobenzo[d]isothiazol-5-yl)amino)-4-oxo-4,5-dihydro-1H-pyrazolo[4,3-c]pyridin-1-yl)cyclopentyl)acetonitrile] | 0.04 nM
3 | Cc1cc(Nc2nn([C@]3(CC#N)CC[C@@H](C(=O)OC(C)(C)C)OC3)c3cc[nH]c(=O)c23)ccc1C(=O)N1CCC(O)(C(F)(F)F)C1 (single isomer, unassigned) [Example 5-160, (2S,5S)-tert-butyl 5-(cyanomethyl)-5-(3-((4-((S or R)-3-hydroxy-3-(trifluoromethyl)pyrrolidine-1-carbonyl)-3-methylphenyl)amino)-4-oxo-4,5-dihydro-1H-pyrazolo[4,3-c]pyridin-1-yl)tetrahydro-2H-pyran-2-carboxylate] | 0.22 nM
4 | CC1(C)OC(=O)c2ccc(Nc3nn(C4(CC#N)CCCC4)c4cc[nH]c(=O)c34)cc21 [Example 5-126, (1-{3-[(3,3-dimethyl-1-oxo-1,3-dihydro-2-benzofuran-5-yl)amino]-4-oxo-4,5-dihydro-1H-pyrazolo[4,3-c]pyridin-1-yl}cyclopentyl)acetonitrile] | 4.53 nM
5 | CC(C)S(=N)(=O)c1ccc(Nc2nn([C@]3(CC#N)CC[C@@H](C(=O)OC(C)(C)C)OC3)c3cc[nH]c(=O)c23)cc1 (single isomer, unassigned) [Example 5-231, (2S,5S)-tert-butyl 5-(cyanomethyl)-5-(4-oxo-3-((4-(propan-2-yl-(S or R)-sulfonimidoyl)phenyl)amino)-4,5-dihydro-1H-pyrazolo[4,3-c]pyridin-1-yl)tetrahydro-2H-pyran-2-carboxylate] | 0.12 nM
6 | Cc1ccc(CN2CCC(CC#N)(n3nc(Nc4ccc(S(=O)(=O)N(C)C)cc4)c4c(=O)[nH]ccc43)CC2)cc1 [Example 8-2, 4-({1-[4-(cyanomethyl)-1-(4-methylbenzyl)piperidin-4-yl]-4-oxo-4,5-dihydro-1H-pyrazolo[4,3-c]pyridin-3-yl}amino)-N,N-dimethylbenzenesulfonamide] | 0.44 nM
7 | CC(C)(C)N1Cc2cc(Nc3nn([C@@]4(CC#N)CCOC[C@H]4F)c4cc[nH]c(=O)c34)ccc2C1=O (single isomer, unassigned) [Example 5-260, 2-((3S,4S or 3R,4R)-4-(3-(2-tert-butyl-1-oxoisoindolin-5-ylamino)-4-oxo-4,5-dihydropyrazolo[4,3-c]pyridin-1-yl)-3-fluoro-tetrahydro-2H-pyran-4-yl)acetonitrile] | 0.26 nM
8 | CC(C)NS(=O)(=O)c1ccc(Nc2nn(C3(CC#N)CCCC3)c3cc[nH]c(=O)c23)cc1 [Example 5-130, 4-((1-(1-(cyanomethyl)cyclopentyl)-4-oxo-4,5-dihydro-1H-pyrazolo[4,3-c]pyridin-3-yl)amino)-N-isopropylbenzene-sulfonamide] | 0.5 nM
9 | Cc1cc(Nc2nn([C@]3(CC#N)CC[C@@H](C(=O)OC(C)(C)C)OC3)c3cc[nH]c(=O)c23)ccc1C(=O)N1CCSC(C)C1 (single isomer, unassigned) [Example 5-159, (2S,5S)-tert-butyl 5-(cyanomethyl)-5-(3-((3-methyl-4-((S or R)-2-methylthiomorpholine-4-carbonyl)phenyl)amino)-4-oxo-4,5-dihydro-1H-pyrazolo[4,3-c]pyridin-1-yl)tetrahydro-2H-pyran-2-carboxylate] | 0.24 nM
10 | COC(=O)c1ccc(Nc2nn(C3(CC#N)CN(C(=O)OC(C)(C)C)C3)c3cc[nH]c(=O)c23)cc1 [Example 4-2, tert-butyl 3-(cyanomethyl)-3-(3((4(methoxycarbonyl)phenyl)amino)-4-oxo-4,5-dihydro-1H-pyrazolo[4,3-c]pyridin-1-yl)azetidine-1-carboxylate] | 2.47 nM
11 | CC(C)(C)OC(=O)[C@@H]1CC[C@@](CC#N)(n2nc(Nc3ccc(Cn4ccnn4)cc3)c3c(=O)[nH]ccc32)CO1 [Example 5-96, (2S,5S)-tert-butyl 5-(3-((4-((1H-1,2,3-triazol-1-yl)methyl)phenyl)amino)-4-oxo-4,5-dihydro-1H-pyrazolo[4,3-c]pyridin-1-yl)-5-(cyanomethyl) tetrahydro-2H-pyran-2-carboxylate] | 0.07 nM
12 | CC(C)(C)OC(=O)N1CCC(CC#N)(n2nc(Nc3cccc(S(C)(=O)=O)c3)c3c(=O)[nH]ccc32)CC1 [Example 5-13, tert-butyl 4-(cyanomethyl)-4-(3-{[3-(methylsulfonyl)phenyl]amino}-4-oxo-4,5-dihydro-1H-pyrazolo[4,3-c]pyridin-1-yl)piperidine-1-carboxylate] | 0.5 nM

More lines, now with the values ahead:

Row | IC50 | Structure (SMILES)
13 | 1.05 nM | CN(C)S(=O)(=O)c1ccc(Nc2nn(C3(CC#N)CCN(C(=O)Cc4ccc(C(F)(F)F)cc4)CC3)c3cc[nH]c(=O)c23)cc1 [Example 9-16, 4-({1-[4-(cyanomethyl)-1-{[4-(trifluoromethyl)phenyl]acetyl}piperidin-4-yl]-4-oxo-4,5-dihydro-1H-pyrazolo[4,3-c]pyridin-3-yl}amino)-N,N-dimethylbenzenesulfonamide]
14 | 0.11 nM | CCC(=O)N1CCC(CC#N)(n2nc(Nc3ccc(S(=O)(=O)N(C)C)cc3)c3c(=O)[nH]ccc32)CC1 [Example 9-1, 4-({1-[4-(cyanomethyl)-1-propanoylpiperidin-4-yl]-4-oxo-4,5-dihydro-1H-pyrazolo[4,3-c]pyridin-3-yl}amino)-N,N-dimethylbenzenesulfonamide]
15 | 0.07 nM | CC(C)(C)OC(=O)[C@@H]1CC[C@@](CC#N)(n2nc(Nc3ccc4c(c3)NC(=O)C4(C)C)c3c(=O)[nH]ccc32)CO1 [Example 21-3, (2S,5S)-tert-butyl 5-(cyanomethyl)-5-(3-((3,3-dimethyl-2-oxoindolin-6-yl)amino)-4-oxo-4,5-dihydro-1H-pyrazolo[4,3-c]pyridin-1-yl)tetrahydro-2H-pyran-2-carboxylate]
16 | 0.18 nM | CC(OC(=O)N1CCC(CC#N)(n2nc(Nc3ccc(S(=O)(=O)N(C)C)cc3)c3c(=O)[nH]ccc32)CC1)C(F)(F)F (centres unmarked) [Example 11-8, 1,1,1-trifluoropropan-2-yl 4-(cyanomethyl)-4-(3-((4-(N,N-dimethylsulfamoyl)phenyl)amino)-4-oxo-4,5-dihydro-1H-pyrazolo[4,3-c]pyridin-1-yl)piperidine-1-carboxylate]
17 | 0.1 nM | CN(C)S(=O)(=O)c1ccc(Nc2nn([C@]3(CC#N)CC[C@@H](N4CC(F)C4)CC3)c3cc[nH]c(=O)c23)cc1 [Example 18-29, Trans 4-((1-(1-(cyanomethyl)-4-(3-fluoroazetidin-1-yl)cyclohexyl)-4-oxo-4,5-dihydro-1H-pyrazolo[4,3-c]pyridin-3-yl)amino)-N,N-dimethylbenzenesulfonamide]
